This data set deals with human apolipoprotein B mRNA. The data set is described as follows: Inhibition of human apolipoprotein B mRNA levels in HepG2 cells, quantitative real-time PCR. Format: cell-based. To be noted: averages from two experiments; for % INHIB (inhibition of human apolipoprotein B mRNA levels): HepG2 cells treated with 150 nM of compound, quantitative real-time PCR; for % INHIB: Table 12, HepG2 cells, 150 nM. The method, then:
The human hepatoblastoma cell line HepG2 was obtained from the American Type Culture Collection (Manassas, Va.). HepG2 cells were routinely cultured in Eagle's MEM supplemented with 10% fetal calf serum, non-essential amino acids, and 1 mM sodium pyruvate (Gibco/Life Technologies, Gaithersburg, Md.). Cells were routinely passaged by trypsinization and dilution when they reached 90% confluence. Cells were seeded into 96-well plates (Falcon-Primaria #3872) at a density of 7000 cells/well for use in RT-PCR analysis.
When cells reached 80% confluency, they were treated with oligonucleotide. For cells grown in 96-well plates, wells were washed once with 200 μL OPTI-MEM™-1 reduced-serum medium (Gibco BRL) and then treated with 130 μL of OPTI-MEM™-1 containing 3.75 μg/mL LIPOFECTIN™ (Gibco BRL) and the desired concentration of oligonucleotide. After 4-7 hours of treatment, the medium was replaced with fresh medium. Cells were harvested 16-24 hours after oligonucleotide treatment.
Quantitation of apolipoprotein B mRNA levels was determined by real-time quantitative PCR using the ABI PRISM™ 7700 Sequence Detection System (PE-Applied Biosystems, Foster City, Calif.) according to manufacturer's instructions. This is a closed-tube, non-gel-based, fluorescence detection system which allows high-throughput quantitation of polymerase chain reaction (PCR) products in real-time. As opposed to standard PCR, in which amplification products are quantitated after the PCR is completed, products in real-time quantitative PCR are quantitated as they accumulate. This is accomplished by including in the PCR reaction an oligonucleotide probe that anneals specifically between the forward and reverse PCR primers, and contains two fluorescent dyes. A reporter dye (e.g., JOE, FAM, or VIC, obtained from either Operon Technologies Inc., Alameda, Calif. or PE-Applied Biosystems, Foster City, Calif.) is attached to the 5′ end of the probe and a quencher dye (e.g., TAMRA, obtained from either Operon Technologies Inc., Alameda, Calif. or PE-Applied Biosystems, Foster City, Calif.) is attached to the 3′ end of the probe. When the probe and dyes are intact, reporter dye emission is quenched by the proximity of the 3′ quencher dye. During amplification, annealing of the probe to the target sequence creates a substrate that can be cleaved by the 5′-exonuclease activity of Taq polymerase. […] With each cycle, additional reporter dye molecules are cleaved from their respective probes, and the fluorescence intensity is monitored at regular intervals by laser optics built into the ABI PRISM™ 7700 Sequence Detection System. In each assay, a series of parallel reactions containing serial dilutions of mRNA from untreated control samples generates a standard curve that is used to quantitate the percent inhibition after antisense oligonucleotide treatment of test samples.
PCR reagents were obtained from PE-Applied Biosystems, Foster City, Calif. RT-PCR reactions were carried out by adding 25 μL PCR cocktail (1× TAQMAN™ buffer A, 5.5 mM MgCl2, 300 μM each of DATP, dCTP and dGTP, 600 μM of dUTP, 100 nM each of forward primer, reverse primer, and probe, 20 Units RNAse inhibitor, 1.25 Units AMPLITAQ GOLD™, and 12.5 Units MuLV reverse transcriptase) to 96 well plates containing 25 μL total RNA solution. The RT reaction was carried out by incubation for 30 minutes at 48° C. Following a 10 minute incubation at 95° C. to activate the AMPLITAQ GOLD™, 40 cycles of a two-step PCR protocol were carried out: 95° C. for 15 seconds (denaturation) followed by 60° C. for 1.5 minutes (annealing/extension).
Gene target quantities obtained by real time RT-PCR are normalized using either the expression level of GAPDH, a gene whose expression is constant, or by quantifying total RNA using RiboGreen™ (Molecular Probes, Inc. Eugene, Oreg.). GAPDH expression is quantified by real time RT-PCR, by being run simultaneously with the target, multiplexing, or separately. […]
(In general: Real-time PCR tracks product formation cycle by cycle.)

In the oligonucleotide strings, read from the 5' end, every base follows the letter of its sugar. An asterisk marks phosphorothioate; unmarked linkages are phosphodiester. Other units and linkages are bracketed, terminal groups are in braces. A string of capitals states the bases alone. e = 2'-O-(2-methoxyethyl) (MOE); [5mC] = 5-methylcytosine; d = 2'-deoxy (DNA)

As for “271016 (antisense eA*e[5mC]*e[5mC]*e[5mC]*eA*dG*dA*dA*dT*d[5mC]*dA*dT*dG*dG*d[5mC]*e[5mC]*eT*eG*eA*eT) [compound 271016]”, the “% INHIB (inhibition of human apolipoprotein B mRNA levels)” value is 19%.

Consider “271017 (antisense eG*eG*eT*eG*e[5mC]*d[5mC]*dT*dG*dT*d[5mC]*dT*dG*d[5mC]*dT*d[5mC]*eA*eG*e[5mC]*eT*eG) [compound 271017]”, for which the “% INHIB (inhibition of human apolipoprotein B mRNA levels)” value worked out at 30%.

For “271018 (antisense eA*eT*eG*eT*eG*dA*dA*dA*d[5mC]*dT*dT*dG*dT*d[5mC]*dT*e[5mC]*eT*e[5mC]*e[5mC]*e[5mC]) [compound 271018]”, the “% INHIB (inhibition of human apolipoprotein B mRNA levels)” value came out at 44%.

For “271019 (antisense eT*eA*eT*eG*eT*d[5mC]*dT*dG*d[5mC]*dA*dG*dT*dT*dG*dA*eG*eA*eT*eA*eG) [compound 271019]”, the “% INHIB (inhibition of human apolipoprotein B mRNA levels)” value is given as 15%.

As to “271020 (antisense eT*eT*eG*eA*eA*dT*d[5mC]*d[5mC]*dA*dG*dG*dA*dT*dG*d[5mC]*eA*eG*eT*eA*e[5mC]) [compound 271020]”, the “% INHIB (inhibition of human apolipoprotein B mRNA levels)” value stood at 35%.

On to “271021 (antisense eG*eA*eG*eT*e[5mC]*dT*d[5mC]*dT*dG*dA*dG*dT*d[5mC]*dA*d[5mC]*e[5mC]*eT*e[5mC]*eA*e[5mC]) [compound 271021]”, for which the “% INHIB (inhibition of human apolipoprotein B mRNA levels)” value turned out to be 38%.

Turning to “271022 (antisense eG*eA*eT*eA*eG*dA*dA*dT*dA*dT*dT*dG*d[5mC]*dT*d[5mC]*eT*eG*e[5mC]*eA*eA) [compound 271022]”, the “% INHIB (inhibition of human apolipoprotein B mRNA levels)” value was 100%.

Consider “271023 (antisense e[5mC]*e[5mC]*e[5mC]*eT*eT*dG*d[5mC]*dT*d[5mC]*dT*dA*d[5mC]*d[5mC]*dA*dA*eT*eG*e[5mC]*eT*eT) [compound 271023]”, for which the “% INHIB (inhibition of human apolipoprotein B mRNA levels)” value was determined as 44%.

Regarding “271024 (eG*e[5mC]*eT*e[5mC]*eA*d[5mC]*dT*dG*dT*dT*d[5mC]*dA*dG*d[5mC]*dA*eT*e[5mC]*eT*eG*eG; antisense) [compound 271024]”, the “% INHIB” value is recorded as 27%.

Turning to “271025 (eT*e[5mC]*e[5mC]*eA*eT*dT*d[5mC]*d[5mC]*d[5mC]*dT*dA*dT*dG*dT*d[5mC]*eA*eG*e[5mC]*eA*eT; antisense) [compound 271025]”, the “% INHIB (inhibition of human apolipoprotein B mRNA levels)” value turned out to be 16%.

As to “271026 (eG*eA*e[5mC]*eT*e[5mC]*d[5mC]*dT*dT*d[5mC]*dA*dG*dA*dG*d[5mC]*d[5mC]*eA*eG*e[5mC]*eG*eG; antisense) [compound 271026]”, the “% INHIB (inhibition of human apolipoprotein B mRNA levels)” value stood at 39%.

For “271027 (e[5mC]*e[5mC]*e[5mC]*eA*eT*dG*d[5mC]*dT*d[5mC]*d[5mC]*dG*dT*dT*d[5mC]*dT*e[5mC]*eA*eG*eG*eT; antisense) [compound 271027]”, the “% INHIB (inhibition of human apolipoprotein B mRNA levels)” value was found to be 26%.

On to “271028 (e[5mC]*eG*e[5mC]*eA*eG*dG*dT*d[5mC]*dA*dG*d[5mC]*d[5mC]*dT*dG*dA*e[5mC]*eT*eA*eG*eA; antisense) [compound 271028]”, for which the “% INHIB (inhibition of human apolipoprotein B mRNA levels)” value is 98%.

As for “271030 (e[5mC]*eA*eG*eT*eT*dA*dG*dA*dA*d[5mC]*dA*d[5mC]*dT*dG*dT*eG*eG*e[5mC]*e[5mC]*e[5mC]; antisense) [compound 271030]”, the “% INHIB (inhibition of human apolipoprotein B mRNA levels)” value is reported as 52%.

For the substance “271031 (e[5mC]*eA*eG*eT*eG*dT*dG*dA*dT*dG*dA*d[5mC]*dA*d[5mC]*dT*eT*eG*eA*eT*eT; antisense) [compound 271031]”, the “% INHIB (inhibition of human apolipoprotein B mRNA levels)” value came to 49%.

Consider “271032 (e[5mC]*eT*eG*eT*eG*dG*d[5mC]*dT*dA*dA*d[5mC]*dT*dT*d[5mC]*dA*eA*eT*e[5mC]*e[5mC]*e[5mC]; antisense) [compound 271032]”, for which the “% INHIB (inhibition of human apolipoprotein B mRNA levels)” value worked out at 22%.

For the substance “271033 (e[5mC]*eA*eG*eT*eA*d[5mC]*dT*dG*dT*dT*dA*dT*dG*dA*d[5mC]*eT*eA*e[5mC]*e[5mC]*e[5mC]; antisense) [compound 271033]”, the “% INHIB (inhibition of human apolipoprotein B mRNA levels)” value came out at 34%.

On to “271034 (e[5mC]*eA*e[5mC]*eT*eG*dA*dA*dG*dA*d[5mC]*d[5mC]*dG*dT*dG*dT*eG*e[5mC]*eT*e[5mC]*eT; antisense) [compound 271034]”, for which the “% INHIB (inhibition of human apolipoprotein B mRNA levels)” value is given as 35%.

Take “271035 (eT*e[5mC]*eG*eT*eA*d[5mC]*dT*dG*dT*dG*d[5mC]*dT*d[5mC]*d[5mC]*d[5mC]*eA*eG*eA*eG*eG; antisense) [compound 271035]”: the “% INHIB (inhibition of human apolipoprotein B mRNA levels)” value was found to be 23%.

On to “271036 (eA*eA*eG*eA*eG*dG*d[5mC]*d[5mC]*d[5mC]*dT*d[5mC]*dT*dA*dG*d[5mC]*eT*eG*eT*eA*eA; antisense) [compound 271036]”, for which the “% INHIB (inhibition of human apolipoprotein B mRNA levels)” value is 95%.

In the case of “271037 (eA*eA*eG*eA*e[5mC]*d[5mC]*d[5mC]*dA*dG*dA*dA*dT*dG*dA*dA*eT*e[5mC]*e[5mC]*eG*eG; antisense) [compound 271037]”, the “% INHIB (inhibition of human apolipoprotein B mRNA levels)” value is 23%.

On to “271038 (eG*eT*e[5mC]*eT*eA*d[5mC]*d[5mC]*dT*d[5mC]*dA*dA*dA*dG*d[5mC]*dG*eT*eG*e[5mC]*eA*eG; antisense) [compound 271038]”, for which the “% INHIB (inhibition of human apolipoprotein B mRNA levels)” value is given as 29%.

On to “271039 (eT*eA*eG*eA*eG*dG*d[5mC]*dT*dA*dA*d[5mC]*dG*dT*dA*d[5mC]*e[5mC]*eA*eT*e[5mC]*eT; antisense) [compound 271039]”, for which the “% INHIB (inhibition of human apolipoprotein B mRNA levels)” value came out at 4%.

As to “271040 (eG*eT*e[5mC]*e[5mC]*eT*dT*d[5mC]*dA*dT*dA*dT*dT*dT*dG*d[5mC]*e[5mC]*eA*eT*e[5mC]*eT; antisense) [compound 271040]”, the “% INHIB” value turned out to be 0%.

Consider “271041 (e[5mC]*e[5mC]*eA*eT*eA*dT*d[5mC]*d[5mC]*dA*dT*dG*d[5mC]*d[5mC]*d[5mC]*dA*e[5mC]*eG*eG*eT*eG; antisense) [compound 271041]”, for which the “% INHIB (inhibition of human apolipoprotein B mRNA levels)” value worked out at 37%.

As for “271042 (eA*eG*eT*eT*eT*d[5mC]*d[5mC]*dT*d[5mC]*dA*dT*d[5mC]*dA*dG*dA*eT*eT*e[5mC]*e[5mC]*e[5mC]; antisense) [compound 271042]”, the “% INHIB (inhibition of human apolipoprotein B mRNA levels)” value was found to be 57%.

On to “271043 (e[5mC]*e[5mC]*e[5mC]*eA*eG*dT*dG*dG*dT*dA*d[5mC]*dT*dT*dG*dT*eT*eG*eA*e[5mC]*eA; antisense) [compound 271043]”, for which the “% INHIB (inhibition of human apolipoprotein B mRNA levels)” value was found to be 68%.

For “271044 (e[5mC]*e[5mC]*e[5mC]*eA*eG*dT*dG*dG*dT*dG*d[5mC]*d[5mC]*dA*d[5mC]*dT*eG*eG*e[5mC]*eT*eG; antisense) [compound 271044]”, the “% INHIB (inhibition of human apolipoprotein B mRNA levels)” value worked out at 22%.

Regarding “271045 (eG*eT*e[5mC]*eA*eA*d[5mC]*dA*dG*dT*dT*d[5mC]*d[5mC]*dT*dG*dG*eT*eA*e[5mC]*eA*eG; antisense) [compound 271045]”, the “% INHIB (inhibition of human apolipoprotein B mRNA levels)” value is 19%.

As to “271046 (e[5mC]*e[5mC]*e[5mC]*eT*eA*dG*dT*dG*dT*dA*dT*dA*dT*d[5mC]*d[5mC]*e[5mC]*eA*eG*eG*eT; antisense) [compound 271046]”, the “% INHIB (inhibition of human apolipoprotein B mRNA levels)” value came out at 61%.
